Assay results reported in patent publication US20210340130A1, “Compositions and methods for treating attention deficit disorders” (priority 2016, published 2021).
Entries after “also recorded” stand apart in the source; their conditions may differ.

Columns and labels:
[1] = system: cyclothiazide binding site; details: cited from earlier work
hippocampal slices = details: cited from earlier work
schizophrenia patients = details: cited from earlier work
[2] = system: fragile X syndrome patients; details: cited from earlier work
[3] = system: hippocampal slices (CA1 population spikes)
Protocol: Slice Seizure Assay In these studies extracellular field potentials recording (Population Spikes) in hippocampal slices were used to determine convulsant activity (potential seizure liability). Transverse 300-400 μm hippocampal slices were taken from adult male Sprague-Dawley rats (4-6 week old) and incubated in a submerge slice recording chamber system for 30 to 60 min. The chamber was perfused with oxygenated artificial cerebral spinal fluid (ACSF) comprising (in mM): NaCl 124, KCl 3.0, KH2PO4 1.25, CaCl2.34, MgSO4 2.5, NaHCO3 26 and glucose 10 at room temperature. Population Spike (PS) recordings were made with glass electrodes filled with 2 M NaCl (1-5 megaohm) places in the region of pyramidal cell body of CA1. Electrical stimuli were produced with twisted bipolar nichrome wire electrodes in the Schaffer-commissural fiber afferents. Population spike was induced by activating Schaffer-commissural fiber using single pulse stimulation with delivered at 0.05 Hz. The maximal amplitude of PS was determined by increase stimulating intensity till second spike appears. Then the intensity was decreased to induce a 50% to 60% of maximal response. The amplitude of PS was measured for each response and plotted against time. At same time the amplitude of second PS and/or number of PS was measured and plotted against time. The size of the second PS and numbers of PS were used to estimate the seizure potential or seizure state. With 20 to 50 min stable baseline established testing compound was perfused for 10 to 20 min at each concentration to observe the effect. […] The perfusion then was switched to control ACSF and continued to record until drug effect was washed back to the baseline. CX717 and CX1739 exemplary test ampakine compounds were prepared by dissolving in DMSO and then added to ACSF.
The upper 3 panels of FIG. 5 show amplitudes for PS 1, 2 and 3 m respectively. Lower panel is the measurement of the number of PS.

BDNF production = details: 16 uM; cited from earlier work

## O=C(c1ccc2nccnc2c1)N1CCCCC1 [CX516]
[1]
  binding to the cyclothiazide binding site: does not bind to the cyclothiazide binding site
Hippocampal slices
  generalized discharges in hippocampal slices: do not
Schizophrenia patients; add-on to clozapine, olanzapine or risperidone, weeks 4 or 8
  cognition tests versus placebo groups: did not significantly differ
Schizophrenia patients; four weeks treatment
  adverse side effects: fatigue, epigastric discomfort and insomnia
[2]
  memory, language use, attention, executive and overall functioning: did not exhibit improved memory

## O=C(c1ccc2c(c1)OCCO2)N1CCCCC1 [CX546]
[1]
  binding to the cyclothiazide binding site: binds to the cyclothiazide binding site
Hippocampal slices
  generalized discharges in hippocampal slices: produce generalized discharges

## O=C1c2cc3c(cc2OC2CCCN12)OCCO3 (stereo not shown) [CX614, reference compound]
[3]; 16 uM
  seizure / convulsant activity: demonstrated seizure potential activity; also recorded: unacceptable convulsant activity
BDNF production
  BDNF production in hippocampal slices: significantly increases BDNF production

## picrotoxin [reference compound]
[3]; 50 μM perfusion
  seizure activity (population spikes): induced a seizure like activity at the level of second PS but not third PS
